The values that follow are results of earlier work, collected in patent EP0687181B1, “USE OF THYMOSIN FOR TREATING HEPATITIS C IN NON-RESPONDERS TO INTERFERON TREATMENT” (ALPHA 1 BIOMEDICALS, INC., priority 1993, dated 2001).

Where no end group is shown, it is not given here.

One data set relates to HCV-related diseases. Particulars: in vivo.
Another data set concerns influenza vaccine. Particulars: drug recipients.

As for `Nc1nc2c(ncn2COCCO)c(=O)[nH]1` [acyclovir], the “effect on progression of HCV-related diseases” value in the data set on HCV-related diseases is recorded as “ineffective”.
As for “Ac-SDAAVDTSSEITTKDLKEKKEVVEEAEN [Thymosin α-1]”, in the data set with influenza vaccine, the toxicity result was “No clinical or biochemical toxicity”.
